From ChEMBL document CHEMBL5614431, “Discovery of 1,3,4-oxadiazoles with slow-action activity against Plasmodium falciparum malaria parasites” (Eur J Med Chem, 2024)

System: Plasmodium falciparum
Test: Antimalarial activity against synchronous ring stage Plasmodium falciparum 3D7 infected in human Erythrocyte assessed as inhibition of parasite growth incubated for 48 hrs by [3H]-hypoxanthine incorporation assay
Type: functional, organism-based
Details: 3D7, Erythrocyte

Row | Compound | IC50 [µM]
1 | CC1(C)CN(c2nnc(S(=O)(=O)C3CCCCC3)o2)CCO1 | > 25
2 | O=S(=O)(c1nnc(N2CC3(CCOCC3)C2)o1)C1CCCCC1 | > 50
3 | CN1CCN(c2nnc(S(=O)(=O)C3CCCCC3)o2)CC1 | > 100
4 | O=S(=O)(c1nnc(N2CCCCO2)o1)C1CCCCC1 | 8.24
5 | CC(C)(C)CS(=O)(=O)c1nnc(N2CCOCC2)o1 | > 10
6 | O=S(=O)(c1nnc(N2CCC(C(F)(F)F)CC2)o1)C1CCCCC1 | 22.1
7 | O=S(=O)(c1nnc(N2CCCC2)o1)C1CCCCC1 | > 50
8 | O=S(=O)(c1nnc(N2CCC(F)(F)CC2)o1)C1CCCCC1 | > 12.5
9 | CC(C)(C)OC(=O)N1CCC(S(=O)(=O)c2nnc(N3CCOCC3)o2)CC1 | > 25
10 | C[C@@H]1CN(c2nnc(S(=O)(=O)C3CCCCC3)o2)C[C@H](C)O1 | > 25
11 | O=S(=O)(c1nnc(N2CC3CCC(C2)O3)o1)C1CCCCC1 | > 50
12 | O=S(=O)(c1nnc(N2CCC3(CCCO3)CC2)o1)C1CCCCC1 | > 50
13 | O=S(=O)(CC1(C(F)(F)F)CCC1)c1nnc(N2CCOCC2)o1 | 17
14 | O=S(=O)(c1nnc(N2CCOCC2)o1)C1CCCC1 | > 50
15 | O=S(=O)(CC1CCCC1)c1nnc(N2CCOCC2)o1 | > 10
16 | CC1CC(C)CN(c2nnc(S(=O)(=O)C3CCCCC3)o2)C1 (mixture of isomers) | > 12.5
17 | O=S(=O)(CC1CCCCC1)c1nnc(N2CCOCC2)o1 | 17.6
18 | O=S(=O)(c1nnc(N2C3CCC2CC3)o1)C1CCCCC1 | 5.76
19 | O=S(=O)(c1nnc(N2CCOCC2)o1)C1CCOCC1 | > 50
20 | CC1(C)CCCN(c2nnc(S(=O)(=O)C3CCCCC3)o2)C1 | 21.1
21 | O=S(=O)(c1nnc(N2C3CCCC2CC3)o1)C1CCCCC1 | > 25
22 | O=S(=O)(c1nnc(N2CCOCC2)s1)C1CCCCC1 | > 50
23 | COC1CCN(c2nnc(S(=O)(=O)C3CCCCC3)o2)CC1 | > 50
24 | O=S(=O)(Cc1ccc(Cl)c(Cl)c1)c1nnc(N2CCOCC2)o1 | 6.6
25 | O=S(=O)(c1nnc(N2CCC3(CC2)OCCO3)o1)C1CCCCC1 | > 50
26 | CC(C)(C)OC(=O)N1CCN(c2nnc(S(=O)(=O)C3CCCCC3)o2)CC1 | > 50

System: Plasmodium falciparum
Test: Antimalarial activity against synchronous ring stage Plasmodium falciparum 3D7 infected in human Erythrocyte assessed as inhibition of parasite growth incubated for 96 hrs by [3H]-hypoxanthine incorporation assay
Type: functional, organism-based
Details: 3D7, Erythrocyte

Row | Compound | IC50 [nM]
27 | CC1(C)CN(c2nnc(S(=O)(=O)C3CCCCC3)o2)CCO1 | 240
28 | O=S(=O)(c1nnc(N2CC3(CCOCC3)C2)o1)C1CCCCC1 | 110
29 | CN1CCN(c2nnc(S(=O)(=O)C3CCCCC3)o2)CC1 | 5400
30 | O=S(=O)(c1nnc(N2CCCCO2)o1)C1CCCCC1 | 18400
31 | CC(C)(C)CS(=O)(=O)c1nnc(N2CCOCC2)o1 | 1340
32 | O=S(=O)(c1nnc(N2CCC(C(F)(F)F)CC2)o1)C1CCCCC1 | 370
33 | O=S(=O)(c1nnc(N2CCCC2)o1)C1CCCCC1 | 3530
34 | O=S(=O)(c1nnc(N2CCC(F)(F)CC2)o1)C1CCCCC1 | 720
35 | CC(C)(C)OC(=O)N1CCC(S(=O)(=O)c2nnc(N3CCOCC3)o2)CC1 | 5050
36 | C[C@@H]1CN(c2nnc(S(=O)(=O)C3CCCCC3)o2)C[C@H](C)O1 | 290
37 | O=S(=O)(c1nnc(N2CC3CCC(C2)O3)o1)C1CCCCC1 | 100
38 | O=S(=O)(c1nnc(N2CCC3(CCCO3)CC2)o1)C1CCCCC1 | 770
39 | O=S(=O)(CC1(C(F)(F)F)CCC1)c1nnc(N2CCOCC2)o1 | 4300
40 | O=S(=O)(c1nnc(N2CCOCC2)o1)C1CCCC1 | 5820
41 | O=S(=O)(CC1CCCC1)c1nnc(N2CCOCC2)o1 | 640
42 | CC1CC(C)CN(c2nnc(S(=O)(=O)C3CCCCC3)o2)C1 (mixture of isomers) | 30
43 | O=S(=O)(CC1CCCCC1)c1nnc(N2CCOCC2)o1 | 390
44 | O=S(=O)(c1nnc(N2C3CCC2CC3)o1)C1CCCCC1 | 830
45 | O=S(=O)(c1nnc(N2CCOCC2)o1)C1CCOCC1 | 7090
46 | CC1(C)CCCN(c2nnc(S(=O)(=O)C3CCCCC3)o2)C1 | 40
47 | O=S(=O)(c1nnc(N2C3CCCC2CC3)o1)C1CCCCC1 | 410
48 | O=S(=O)(c1nnc(N2CCOCC2)s1)C1CCCCC1 | > 50000
49 | COC1CCN(c2nnc(S(=O)(=O)C3CCCCC3)o2)CC1 | 690
50 | O=S(=O)(Cc1ccc(Cl)c(Cl)c1)c1nnc(N2CCOCC2)o1 | 4200
51 | O=S(=O)(c1nnc(N2CCC3(CC2)OCCO3)o1)C1CCCCC1 | 900
52 | CC(C)(C)OC(=O)N1CCN(c2nnc(S(=O)(=O)C3CCCCC3)o2)CC1 | 2730

System: not listed separately
Test: Selectivity ratio of IC50 for antimalarial activity against synchronous ring stage Plasmodium falciparum 3D7 infected in human Erythrocyte assessed as inhibition of parasite growth incubated for 48 hrs by [3H]-hypoxanthine incorporation assay to IC50 for antimalarial activity against synchronous ring stage Plasmodium falciparum 3D7 infected in human Erythrocyte assessed as inhibition of parasite growth incubated for 48 hrs by [3H]-hypoxanthine incorporation assay
Type: functional
Details: not given

Row | Compound | Ratio IC50
53 | CC1(C)CN(c2nnc(S(=O)(=O)C3CCCCC3)o2)CCO1 | >105
54 | O=S(=O)(c1nnc(N2CC3(CCOCC3)C2)o1)C1CCCCC1 | >476
55 | CN1CCN(c2nnc(S(=O)(=O)C3CCCCC3)o2)CC1 | >19
56 | O=S(=O)(c1nnc(N2CCCCO2)o1)C1CCCCC1 | 0.4
57 | CC(C)(C)CS(=O)(=O)c1nnc(N2CCOCC2)o1 | >8
58 | O=S(=O)(c1nnc(N2CCC(C(F)(F)F)CC2)o1)C1CCCCC1 | 61
59 | O=S(=O)(c1nnc(N2CCCC2)o1)C1CCCCC1 | >14
60 | O=S(=O)(c1nnc(N2CCC(F)(F)CC2)o1)C1CCCCC1 | >17
61 | CC(C)(C)OC(=O)N1CCC(S(=O)(=O)c2nnc(N3CCOCC3)o2)CC1 | >5
62 | C[C@@H]1CN(c2nnc(S(=O)(=O)C3CCCCC3)o2)C[C@H](C)O1 | >85
63 | O=S(=O)(c1nnc(N2CC3CCC(C2)O3)o1)C1CCCCC1 | >500
64 | O=S(=O)(c1nnc(N2CCC3(CCCO3)CC2)o1)C1CCCCC1 | >65
65 | O=S(=O)(CC1(C(F)(F)F)CCC1)c1nnc(N2CCOCC2)o1 | 4
66 | O=S(=O)(c1nnc(N2CCOCC2)o1)C1CCCC1 | >9
67 | O=S(=O)(CC1CCCC1)c1nnc(N2CCOCC2)o1 | >16
68 | CC1CC(C)CN(c2nnc(S(=O)(=O)C3CCCCC3)o2)C1 (mixture of isomers) | >403
69 | O=S(=O)(CC1CCCCC1)c1nnc(N2CCOCC2)o1 | 45
70 | O=S(=O)(c1nnc(N2C3CCC2CC3)o1)C1CCCCC1 | 7
71 | O=S(=O)(c1nnc(N2CCOCC2)o1)C1CCOCC1 | >7
72 | CC1(C)CCCN(c2nnc(S(=O)(=O)C3CCCCC3)o2)C1 | 527
73 | O=S(=O)(c1nnc(N2C3CCCC2CC3)o1)C1CCCCC1 | >61
74 | COC1CCN(c2nnc(S(=O)(=O)C3CCCCC3)o2)CC1 | >72
75 | O=S(=O)(Cc1ccc(Cl)c(Cl)c1)c1nnc(N2CCOCC2)o1 | 1.6
76 | O=S(=O)(c1nnc(N2CCC3(CC2)OCCO3)o1)C1CCCCC1 | >56
77 | CC(C)(C)OC(=O)N1CCN(c2nnc(S(=O)(=O)C3CCCCC3)o2)CC1 | >18

System: not listed separately
Test: Cytotoxicity against human NFF cells assessed as reduction in cell viability incubated for 72 hrs by SRB assay
Type: toxicity, cell-based
Details: not given

Row | Compound | IC50 at 72 h [µM]
78 | CC1(C)CN(c2nnc(S(=O)(=O)C3CCCCC3)o2)CCO1 | > 100
79 | O=S(=O)(c1nnc(N2CC3(CCOCC3)C2)o1)C1CCCCC1 | > 100
80 | CC(C)(C)CS(=O)(=O)c1nnc(N2CCOCC2)o1 | > 100
81 | O=S(=O)(c1nnc(N2CCC(C(F)(F)F)CC2)o1)C1CCCCC1 | > 100
82 | O=S(=O)(c1nnc(N2CCCC2)o1)C1CCCCC1 | > 100
83 | O=S(=O)(c1nnc(N2CCC(F)(F)CC2)o1)C1CCCCC1 | > 100
84 | CC(C)(C)OC(=O)N1CCC(S(=O)(=O)c2nnc(N3CCOCC3)o2)CC1 | > 100
85 | C[C@@H]1CN(c2nnc(S(=O)(=O)C3CCCCC3)o2)C[C@H](C)O1 | > 100
86 | O=S(=O)(c1nnc(N2CC3CCC(C2)O3)o1)C1CCCCC1 | > 100
87 | O=S(=O)(c1nnc(N2CCC3(CCCO3)CC2)o1)C1CCCCC1 | > 100
88 | O=S(=O)(CC1CCCC1)c1nnc(N2CCOCC2)o1 | > 100
89 | CC1CC(C)CN(c2nnc(S(=O)(=O)C3CCCCC3)o2)C1 (mixture of isomers) | > 100
90 | O=S(=O)(CC1CCCCC1)c1nnc(N2CCOCC2)o1 | 59
91 | O=S(=O)(c1nnc(N2C3CCC2CC3)o1)C1CCCCC1 | 33.5
92 | O=S(=O)(c1nnc(N2CCOCC2)o1)C1CCOCC1 | > 100
93 | CC1(C)CCCN(c2nnc(S(=O)(=O)C3CCCCC3)o2)C1 | > 100
94 | O=S(=O)(c1nnc(N2C3CCCC2CC3)o1)C1CCCCC1 | > 100
95 | COC1CCN(c2nnc(S(=O)(=O)C3CCCCC3)o2)CC1 | > 100
96 | O=S(=O)(c1nnc(N2CCC3(CC2)OCCO3)o1)C1CCCCC1 | > 100

System: not listed separately
Test: Selectivity index, ratio of IC50 for cytotoxicity against human NFF cells to IC50 for antimalarial activity against synchronous ring stage Plasmodium falciparum 3D7 infected in human Erythrocyte assessed as inhibition of parasite growth incubated for 96 hrs
Type: toxicity, cell-based
Details: read-out: Ratio IC50

Row | Compound | selectivity ratio at 96 h
97 | CC1(C)CN(c2nnc(S(=O)(=O)C3CCCCC3)o2)CCO1 | > 417
98 | O=S(=O)(c1nnc(N2CC3(CCOCC3)C2)o1)C1CCCCC1 | > 909
99 | CC(C)(C)CS(=O)(=O)c1nnc(N2CCOCC2)o1 | > 79
100 | O=S(=O)(c1nnc(N2CCC(C(F)(F)F)CC2)o1)C1CCCCC1 | > 270
101 | O=S(=O)(c1nnc(N2CCCC2)o1)C1CCCCC1 | > 28
102 | O=S(=O)(c1nnc(N2CCC(F)(F)CC2)o1)C1CCCCC1 | > 127
103 | CC(C)(C)OC(=O)N1CCC(S(=O)(=O)c2nnc(N3CCOCC3)o2)CC1 | > 20
104 | C[C@@H]1CN(c2nnc(S(=O)(=O)C3CCCCC3)o2)C[C@H](C)O1 | > 345
105 | O=S(=O)(c1nnc(N2CC3CCC(C2)O3)o1)C1CCCCC1 | > 1000
106 | O=S(=O)(c1nnc(N2CCC3(CCCO3)CC2)o1)C1CCCCC1 | > 135
107 | O=S(=O)(CC1CCCC1)c1nnc(N2CCOCC2)o1 | > 158
108 | CC1CC(C)CN(c2nnc(S(=O)(=O)C3CCCCC3)o2)C1 (mixture of isomers) | > 4000
109 | O=S(=O)(CC1CCCCC1)c1nnc(N2CCOCC2)o1 | 151
110 | O=S(=O)(c1nnc(N2C3CCC2CC3)o1)C1CCCCC1 | 40
111 | O=S(=O)(c1nnc(N2CCOCC2)o1)C1CCOCC1 | > 14
112 | CC1(C)CCCN(c2nnc(S(=O)(=O)C3CCCCC3)o2)C1 | > 2500
113 | O=S(=O)(c1nnc(N2C3CCCC2CC3)o1)C1CCCCC1 | > 246
114 | COC1CCN(c2nnc(S(=O)(=O)C3CCCCC3)o2)CC1 | > 145
115 | O=S(=O)(c1nnc(N2CCC3(CC2)OCCO3)o1)C1CCCCC1 | > 111
